Test results published in ChEMBL document CHEMBL1201862, “PubChem BioAssay data set” (2004).
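Results reflect a 48-hour exposure of cells in 96-well plates to compound at five concentrations. GI50 marks 50% less growth.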 Active and inactive are the calls of the source. No stated cut-off is given here; in the data, active = GI50 up to about 1.1 µM and inactive = higher. Positions of bridges follow the written chain, without caps; N, C: chain ends. Residues, ends and D or L forms follow the SMILES beside them.

Columns and labels:
Experiment in all cases: growth of human tumour cells (NCI), 48 h
HCT-15 = test system: HCT-15
SK-MEL-2 = test system: SK-MEL-2
ACHN = test system: ACHN
MDA-MB-435 = test system: MDA-MB-435
Hs-578T = test system: Hs-578T
K562 = test system: K562
SF-295 = test system: SF-295
OVCAR-3 = test system: OVCAR-3
OVCAR-8 = test system: OVCAR-8
DU-145 = test system: DU-145
EKVX = test system: EKVX
Malme-3M = test system: Malme-3M
UACC-62 = test system: UACC-62
SNB-75 = test system: SNB-75
UACC-257 = test system: UACC-257
RXF 393 = test system: RXF 393
T47D = test system: T47D

Measured: GI50

O=C1/C(=C/c2cccs2)NC(=S)N1CN1CCCCC1
inactive: SK-MEL-2 > 100 µM | ACHN 42.6 µM | MDA-MB-435 85.1 µM | Hs-578T > 100 µM | K562 52.1 µM | SF-295 > 100 µM | OVCAR-3 > 100 µM | OVCAR-8 41 µM | DU-145 42.5 µM | EKVX 55 µM | Malme-3M > 100 µM | UACC-62 55.8 µM | SNB-75 > 100 µM
29.9 µM: HCT-15

Cc1cc(C)c2ccc(N3CCNCC3)nc2n1
inactive: SK-MEL-2 > 100 µM | ACHN > 100 µM | MDA-MB-435 > 100 µM | Hs-578T > 100 µM | UACC-257 > 100 µM | K562 > 100 µM | SF-295 > 100 µM | OVCAR-3 > 100 µM | OVCAR-8 > 100 µM | DU-145 > 100 µM | EKVX > 100 µM | Malme-3M > 100 µM | UACC-62 > 100 µM | SNB-75 > 100 µM
> 100 µM: HCT-15

CC/C(Cl)=N\OC(=O)Nc1ccc(F)c([N+](=O)[O-])c1
6.44 µM: HCT-15
inactive: SK-MEL-2 17 µM | ACHN 1.92 µM | RXF 393 16.7 µM | MDA-MB-435 16.3 µM | Hs-578T 17.4 µM | UACC-257 17.6 µM | K562 3.05 µM | SF-295 20.7 µM | OVCAR-3 5.08 µM | OVCAR-8 16.6 µM | DU-145 19.5 µM | EKVX 19.2 µM | Malme-3M 2.13 µM | UACC-62 17.3 µM | SNB-75 18.2 µM

O=C1CC(C(O)C(O)C(O)CO)CC(=O)N1 (stereo not given)
> 100 µM: HCT-15
inactive: T47D > 100 µM | ACHN > 100 µM | RXF 393 > 100 µM | MDA-MB-435 > 100 µM | Hs-578T > 100 µM | UACC-257 > 100 µM | K562 > 100 µM | SF-295 > 100 µM | OVCAR-3 > 100 µM | OVCAR-8 > 100 µM | EKVX > 100 µM | Malme-3M > 100 µM | SNB-75 > 100 µM

COc1ccc(-c2nc3ncccn3c2-c2ccc([S+](C)[O-])cc2)cc1 (stereo not given)
inactive: SK-MEL-2 > 100 µM | ACHN > 100 µM | MDA-MB-435 15.1 µM | Hs-578T > 100 µM | UACC-257 > 100 µM | K562 > 100 µM | SF-295 > 100 µM | OVCAR-3 > 100 µM | OVCAR-8 > 100 µM | DU-145 > 100 µM | UACC-62 54.7 µM | SNB-75 > 100 µM
> 100 µM: HCT-15

Cc1nn(C(=O)c2ccccc2O)c2c1C(c1ccc(O)cc1O)SC(=N)N2 (stereo not given)
inactive: SK-MEL-2 > 10 µM | ACHN 4.75 µM | RXF 393 5.52 µM | MDA-MB-435 4.05 µM | Hs-578T 1.91 µM | K562 2.63 µM | SF-295 > 10 µM | OVCAR-3 2.96 µM | OVCAR-8 6.04 µM | DU-145 8.28 µM | EKVX 8.11 µM | Malme-3M > 10 µM | UACC-62 1.89 µM | SNB-75 2.48 µM
3.66 µM: HCT-15

O=C(c1ccc(/N=C/c2ccccc2O)cc1)c1ccc(/N=C/c2ccccc2O)cc1
inactive: SK-MEL-2 > 100 µM | T47D 62.8 µM | ACHN > 100 µM | RXF 393 > 100 µM | MDA-MB-435 > 100 µM | K562 > 100 µM | SF-295 > 100 µM | OVCAR-3 > 100 µM | DU-145 > 100 µM | EKVX > 100 µM | Malme-3M > 100 µM | UACC-62 > 100 µM | SNB-75 > 100 µM
> 100 µM: HCT-15

CCC(C)C1NC(=O)C(CC(C)C)NC(=O)C(C(C)C)NC(=O)C2CSSCC(NC1=O)C(=O)N2 (stereo not given) (cyclo(CCVLI); disulfide 1-2; configuration not given here)
active: SK-MEL-2 0.142 µM | T47D 0.0305 µM | ACHN 0.458 µM | MDA-MB-435 0.194 µM | Hs-578T 0.043 µM | UACC-257 0.141 µM | SF-295 0.182 µM | OVCAR-3 0.187 µM | OVCAR-8 0.194 µM | DU-145 0.156 µM | EKVX 0.15 µM | UACC-62 0.0904 µM | SNB-75 0.112 µM
1.86 µM: HCT-15
